Test results reported in article PMC12844744, “Complexed Linalool with Beta-Cyclodextrin Improve Antihypertensive Activity: Pharmacokinetic and Pharmacodynamic Insights” (Pharmaceuticals, 2025).
Read-outs that look alike come from different tables or passages of the source.

What was measured:
[1] = test system: isolated superior mesenteric artery rings from SHRs; assay: Vascular reactivity of isolated superior mesenteric artery rings after 60-day treatment; assay type: in vivo, rat; settings: mesenteric rings from SHR treated 50 mg/kg/day 60 days, mean ± S.E.M.
[2] = parameters: method as in PMID 16596022; settings: cited from earlier work
[3] = test system: spontaneously hypertensive rats (SHR); assay: Acute oral (orogastric) effects on blood pressure and heart rate over 6 h; assay type: in vivo, rat; settings: oral 50 mg/kg, monitored 6 h, vs vehicle
[4] = test system: spontaneously hypertensive rats (SHR); assay: Cardiac mass index after 60-day treatment; assay type: in vivo, rat; settings: 50 mg/kg/day p.o., 60 days, vs SHR vehicle
Procedure: (§1) After 60 days of treatment period, Wistar and SHRs were euthanized in a carbon dioxide (CO2) chamber. Hearts were carefully excised, and surrounding adipose tissue and vascular structures were meticulously removed. Each heart was weighed using an analytical balance, and the cardiac mass index was calculated by normalizing the heart weight to the total body weight of the animal. A transverse cut was then made, and the left and right ventricles, and thoracic aortas. Both tissues were fixed in 4% formaldehyde for histological processing.

[5] = test system: spontaneously hypertensive rats (SHR); assay: Histology of left ventricle and aorta (HE, Picrosirius Red) after 60-day treatment; assay type: in vivo, rat; settings: 50 mg/kg/day p.o., 60 days
Procedure: as §1
The hearts and thoracic aortas were fixed in 4% buffered formaldehyde (0.1 M sodium phosphate buffer, pH 7.4), followed by washing in distilled water. Tissue dehydration was carried out in a graded ethanol series of increasing concentrations, ending with absolute ethanol. Samples were then cleared in xylene, embedded in paraffin, and sectioned using a microtome (RM2125RT, Leica®, Wetzlar, Germany) to obtain serial 5 μm sections. […]
Histological evaluation was conducted in a blinded manner. […] Parameters assessed included the presence or absence of inflammatory infiltrates, hemorrhagic areas, and structural alterations such as decreased cardiomyocyte volume, disruption of muscle fiber continuity, loss of transverse striations, sarcoplasmic granulation, contraction bands, and nuclear changes indicative of tissue injury. […]

[6] = Body weight progression during 60-day treatment; assay type: in vivo, rat; settings: 50 mg/kg/day p.o., 60 days
Procedure: (§2) Before starting any treatment, animals were conditioned for one week to minimize stress-related variability in BP and HR measurements. SHRs were randomly assigned to three experimental groups: Group 1 (SHR + Vehicle): Received saline solution (0.1 mL/100 g, p.o.); Group 2 (SHR + LIN): Treated with (-)-linalool (50 mg/kg/day, p.o.); and Group 3 (SHR + LIN/β-CD): Treated with the LIN/β-cyclodextrin inclusion complex (50 mg/kg/day, p.o.). An additional control group of normotensive Wistar rats (Group 4: Wistar + Vehicle) received saline under the same dosing protocol to serve as a baseline.

[7] = Plasma pharmacokinetics (non-compartmental analysis), healthy Wistar rats; assay type: in vivo; settings: NCA, mean ± SD; for Fabs, Absolute bioavailability: 100 mg/kg; for AUC(0-inf): n = 6, read-out: AUC0−∞, Total Area Under the Curve; for MRT: n = 6, read-out: MRT, Mean Residence Time; for k el: n = 6, read-out: ke, elimination rate constant (converted); for half-life: n = 6, read-out: t1/2, half-life (converted)
Procedure: A bioanalytical methodology was developed and validated to quantify LIN in rat plasma using high-performance liquid chromatography with UV detection (HPLC/UV), according to RDC 27/2012 of the National Agency of Sanitary Vigilance, Brazil. Plasma aliquots (100 µL) were extracted with 300 µL of acetonitrile.
The samples were vortexed for 3 min and centrifuged at 13,000× g for 15 min, at 8 °C. The supernatant aliquots were injected into an HPLC instrument (PerkinElmer, Waltham, MA, USA), Flexar™ HPLC model), using reversed-phase column C18 (Nucleosil column 250 mm × 4.6 mm internal diameter, particle size 5 μm (Macherey—Nagel, Versmold, Germany) protected by a guard column with the same material (Hypersil BDS, 10 mm, particle size 5 μm (Thermo Scientific, Waltham, MA, USA) at a temperature of 50 ± 1 °C during the analysis.
The mobile phase was composed of water: acetonitrile (70:30, v/v), at a flow rate of 1 mL/min. LIN was detected at a wavelength of 210 nm, and the peak area was used for the quantitation of samples. The method was precise, sensitive and accurate within the concentration range of 5–100 ng/mL. All samples quantified were between the concentration range, the higher concentrations were diluted to reach the higher linear concentration.
Plasma pharmacokinetic parameters were estimated after administration of 50 mg/kg and 100 mg/kg, i.v. and orally, respectively, of LIN; 100 mg/kg orally of LIN/β-CD, in healthy Wistar rats; and 50 mg/kg of LIN/β-CD, in SHRs.
The animals received the drugs at the above doses through the caudal lateral vein or by oral gavage. Six animals were evaluated per group, as stated in the literature. After administration of the compounds, approximately 200 µL of blood samples were collected from the caudal lateral vein at 0.083, 0.25, 0.5, 1, 1.5, 2, 4, 6, and 8 h. Plasma was separated by centrifugation (6800× g at 8 ± 1 °C for 15 min) and stored at −20 °C until analysis. Non-compartmental analysis (NCA) of the individual concentration-time profiles was performed using Excel® 2016 software (Microsoft Corporation, Redmond, […], USA).
Calculated pharmacokinetic parameters included: the elimination rate constant (ke), absorption rate constant (ka), area under the concentration-time curve from 0 h to infinity (AUC0−∞), clearance (Cltot), half-life (t1/2), the volume of distribution (V), mean residence time (MRT), mean absorption time (MAT), absolute bioavailability (Fabs) and relative bioavailability (Frel). All the pharmacokinetic (PK) parameters were estimated individually aby analyzing the individual PK profiles. Results were expressed as the mean ± SD, and the PK parameters were compared by ANOVA followed by Student’s t-test (α = 0.05).

[8] = Population PK model with covariates, oral administration data; assay type: in vivo, Wistar rats and SHR
Procedure: (§3) Population pharmacokinetic analysis was performed using Monolix® Suite 2019R1 software (Lixoft®, Antony, France). Structural models evaluated included 1- and 2-compartment models, first-order absorption, and linear elimination. Different error models were analyzed to explain the variability of the residual error, including a constant, proportional, and combined error model. […] The models were parameterized in V, ka, ke, and distribution constants (k1-2 and k2-1). The parameters were estimated with a stochastic approximation. The object function value (OFV), represented as −2 times the log-likelihood (−2LL) and Akaike Information Criterion (AIC), was used to compare the models.
(§4) The base model for i.v. and oral administration has been established. For oral linalool, after establishing the base model, new models adding the categorical covariates investigated in the study (complexed linalool administered in healthy rats and complexed linalool administered in SHRs) were developed. The visual analysis of the graphs and statistical tests (Pearson’s correlation and ANOVA) were carried out to verify if there is any relationship between the random effects of the parameters (h) and the covariables that could contribute to improving the model.
(§5) The graphs that correlate the plasma concentrations with the predicted individual or population plasma concentrations were evaluated by individual waste distribution charts (IWRES). Also, to evaluate whether simulations performed from the developed model are capable of reproducing the median and the variability of the observed data, a graph was generated to verify the predicted data visual predictive check (VPC).

[9] = test system: spontaneously hypertensive rats (SHR); assay: Chronic 60-day oral treatment: blood pressure and heart rate by tail-cuff plethysmography; assay type: in vivo, rat; settings: 50 mg/kg/day p.o., 60 days, vs SHR vehicle
Procedure: as §2
All treatments were administered orally once daily (between 08:00 and 12:00 h) for a period of 60 days, and cardiovascular assessments were performed with all groups in the afternoon (between 12:00 and 18:00 h), approximately 60 min post-administration. BP and heart rate were measured every five days throughout the treatment period using the tail-cuff plethysmography method (Insight® V2.11, São Paulo, Brazil). Systolic and diastolic blood pressures were measured in triplicate for each animal, and the average of these values was used for data analysis and graphical representation.

[10] = Population PK model, intravenous administration in healthy rats; assay type: in vivo, Wistar rats; settings: i.v., 2-compartment model, linear elimination, combined error
Procedure: as §3, §4, §5

[11] = test system: spontaneously hypertensive rats (SHR); assay: Acute intravenous effects on blood pressure and heart rate; assay type: in vivo, rat; settings: i.v. 50 mg/kg, n = 5, mean ± S.E.M.
Description: This protocol aimed to evaluate the acute hemodynamic effects of LIN, administered intravenously (i.v.), on blood pressure (BP) and heart rate (HR) in spontaneously hypertensive rats (SHR) and normotensive Wistar rats. Animals were anesthetized with ketamine and xylazine (Cristália), and following trichotomy of the iliac region, polyethylene (PE) catheters were implanted into the femoral artery and vein.
The catheters consisted of PE-10 segments (internal/external diameter: 0.28/0.61 mm) connected to PE-50 catheter (internal/external diameter: 0.58/0.96 mm). To prevent catheter blockage during the hemodynamic recordings, the arterial and venous catheters were implanted pre-filled with a sterile saline–heparin solution (heparin: 100 UI). […]
Following a 24 h recovery period, baseline physiological parameters, including systolic BP (SBP), diastolic BP (DBP), and heart rate, were recorded. BP was continuously monitored via the arterial catheter connected to a pressure transducer (ADInstruments, São Paulo, Brazil). The signal was amplified and digitized at 1 kHz using a PowerLab 8/35 data acquisition system and analyzed with LabChart 8 Pro software (ADInstruments, São Paulo, Brazil). Once cardiovascular parameters stabilized, SBP, DBP, and HR were recorded as baseline control values. […]

[12] = 2-compartment model, first-order absorption, covariates Complex and Complex SHR in V and k12

C=CC(C)(O)CCC=C(C)C (stereo not shown) [LIN, 3,7-dimethyl-1,6-octadien-3-ol]
Emax of contractile response to phenylephrine ([1]; Phe 10^−10 to 10^−5 M, expressed as percentage of KCl 60 mM contraction, in %): 146.72 ± 12.34
Emax of endothelium-independent relaxation to sodium nitroprusside ([1]; SNP 10^−13 to 10^−5 M, percentage of Phe-induced contraction, in %): −121.04 ± 10.45
Emax of endothelium-dependent vasorelaxation to acetylcholine ([1]; in % (unit assumed)): −70.52 ± 6.80
LogP [2]: ~ 3.3
Effect on blood pressure after oral administration [3]: failed to produce any significant antihypertensive effect
Cardiac mass index (heart weight / body weight) [4]: not observed
Aortic histology ([5]; aorta): no signs of vascular remodeling
Myocardial histology (hematoxylin-eosin) ([5]; left ventricle): preserved myocardial morphology
Body weight progression [6]: no significant changes
CL, clearance ([7]; oral 100 mg/kg, n = 6): 84.3 ± 37.8 mL/min/kg
MAT, Mean absorption time ([7]; oral 100 mg/kg, n = 6): 4.69 ± 1.50 h
Vd, Volume of Distribution ([7]; oral 100 mg/kg, n = 6): 16.29 ± 10.73 L/kg
ka, absorption rate constant ([7]; oral 100 mg/kg, n = 6): 0.23 ± 0.07 h⁻¹
Fabs, Absolute bioavailability ([7]; oral 100 mg/kg, n = 6, listed as LIN Free): 0.003 ± 0.001%
Fabs, Absolute bioavailability ([7]; oral 100 mg/kg, n = 6, listed as free LIN): approximately 0.003%
AUC(0-inf) ([7]; rat, plasma, iv, i.v. 50 mg/kg): 25300 ± 18600 ng·h/mL
clearance ([7]; rat, plasma, iv, i.v. 50 mg/kg, n = 6, read-out: CL, clearance (converted)): 50.5 mL/min/kg
MRT ([7]; rat, plasma, iv, i.v. 50 mg/kg): 8.75 ± 4.78 h
Vd ([7]; rat, plasma, iv, i.v. 50 mg/kg, n = 6, read-out: Vd, Volume of Distribution): 25.2 ± 10.4 L/kg
k el ([7]; rat, plasma, iv, i.v. 50 mg/kg): 3.61e-05 s⁻¹
half-life ([7]; rat, plasma, iv, i.v. 50 mg/kg): 6.6 ± 4.04 h
AUC(0-inf) ([7]; rat, plasma, oral 100 mg/kg): 40 ± 20 ng·h/mL
MRT ([7]; rat, plasma, oral 100 mg/kg): 1.97 ± 0.65 h
k el ([7]; rat, plasma, oral 100 mg/kg): 2.5e-05 s⁻¹
half-life ([7]; rat, plasma, oral 100 mg/kg): 8.64 ± 4.44 h
V, volume of distribution (population estimate) [8, 12]: 15.28 L
k21, distribution microconstant (population estimate) [8, 12]: 0.0711 h⁻¹
ka, absorption rate constant (population estimate) [8, 12]: 0.226 h⁻¹
k el ([8]; Wistar and SHR, rat, plasma, 2-compartment model, first-order absorption, covariates Complex and Complex SHR in V and k12, read-out: ke, first-order rate elimination (population estimate) (converted)): 4.53e-05 s⁻¹
V (typical population parameter, as given in text) ([8]; final model with covariates): 15.28 L/kg
Effect on arterial pressure, chronic treatment [9]: significantly reduced arterial pressure
Vd ([10]; Wistar, rat, plasma, iv, 50 mg/kg, read-out: V, volume of distribution (population estimate)): 22.4 L
k el ([10]; Wistar, rat, plasma, iv, 50 mg/kg, read-out: ke, first-order elimination rate (population estimate) (converted)): 0.000101 s⁻¹
k12, distribution constant (population estimate) [10]: 0.461 h⁻¹
k21, distribution constant (population estimate) [10]: 1.05 h⁻¹
%HR, percent change in heart rate relative to baseline [11]: −54.54 ± 4.84%
%MAP, percent change in mean arterial pressure relative to baseline [11]: −56.64 ± 5.05%
